Usually MIC stands for the lowest concentration that inhibits growth of the organism. What is called IC50 is the concentration that gives 50% inhibition. Read a low IC50 as higher potency.

In data set [1] the test system is C. albicans. Briefly: Minimum Inhibitory Concentration (MIC), CLSI M27-A2. The class given is cell-based. Particulars: Candida albicans; about 50% growth reduction; approximately 48 h at 35°C. The method, then:
Compounds were assessed for their ability to inhibit the growth of common strains of fungus, C. albicans using a standardized procedure (CLSI M27-A2). Stock solutions of the test compounds and standards were prepared in DMSO at 1,600 μg/mL (C. albicans). Eleven, serial, one-half dilutions of compounds were prepared in 96-well plates in RPMI+MOPS. The assay concentration ranges were […] (C. albicans). Cell suspensions of C. albicans were prepared and added to each well at concentrations of approximately 3.7×10^3 colony-forming-units per milliliter (cfu/mL). All testing was in duplicate. The inoculated plates were incubated for approximately 48 h at 35±1° C. At the completion of incubation the wells of each plate were evaluated visually for the presence of fungal growth. […] For QC purposes C. krusei isolate ATCC 6258 (4.0×10^3 efu/mL) was included in the VOR assay.

Data set [2] deals with CYP3A4 (Homo sapiens (Human), UniProt P08684). Briefly: Inhibition of liver cytochrome P450 enzymes, pooled human liver microsomes. In kind it is in vitro ADME. The procedure:
(§1) Solutions of each test compound were separately prepared at concentrations of 20000, 6000, 2000, 600, 200, and 60 μM by serial dilution with DMSO:MeCN (50:50 v/v). […] The mixed inhibitor solutions were then diluted 20-fold with DMSO:MeCN:deionized water (5:5:180 v/v/v) to concentrations of 300, 100, 30, 10, 3, 1, 0.3, and 0.1 μM. The percent of organic solvent attributable to the test compound or inhibitor mixture in the final reaction mixture was 2% v/v. Pooled human liver microsome suspension (20 mg/mL) was diluted with phosphate buffer to obtain a 5 mg/mL suspension. A solution of NADPH was prepared in phosphate buffer at a concentration of 5 mM. Separate stock solutions of each substrate were prepared in DMSO:MeCN (50:50 v/v), mixed, and diluted in phosphate buffer to obtain a single solution containing each substrate at five times its experimentally determined Km concentration. The percent of organic solvent attributable to substrate mixture in the final reaction mixture was 1% v/v. Substrate solution and microsome suspension were combined in a 1:1 volume ratio, mixed, and distributed to reaction wells of a PCR plate. Individual test compound or combined inhibitor solutions at each concentration were added to the wells and mixed by repetitive aspirate-dispense cycles. […] Reaction mixtures were allowed to equilibrate at 37° C. for approximately two minutes before adding NADPH solution to initiate reaction, followed by pipette mixing of reaction mixture. Ten minutes after addition of NADPH, the reaction mixtures were quenched with cold acetonitrile. […] A portion of the supernatant was analyzed by gradient reverse-phase HPLC with detection by electrospray ionization triple quadrupole mass spectrometry in the positive ion mode. Data was fitted to sigmoid dose-response curves and the inhibitory potency of each test compound was determined as its IC50 value.

The target in data set [3] is CYP2C9 (Homo sapiens (Human), UniProt P11712). The description is as above. In kind it is in vitro ADME. The procedure: as §1
Sequence of CYP2C9 (P11712 whole entry): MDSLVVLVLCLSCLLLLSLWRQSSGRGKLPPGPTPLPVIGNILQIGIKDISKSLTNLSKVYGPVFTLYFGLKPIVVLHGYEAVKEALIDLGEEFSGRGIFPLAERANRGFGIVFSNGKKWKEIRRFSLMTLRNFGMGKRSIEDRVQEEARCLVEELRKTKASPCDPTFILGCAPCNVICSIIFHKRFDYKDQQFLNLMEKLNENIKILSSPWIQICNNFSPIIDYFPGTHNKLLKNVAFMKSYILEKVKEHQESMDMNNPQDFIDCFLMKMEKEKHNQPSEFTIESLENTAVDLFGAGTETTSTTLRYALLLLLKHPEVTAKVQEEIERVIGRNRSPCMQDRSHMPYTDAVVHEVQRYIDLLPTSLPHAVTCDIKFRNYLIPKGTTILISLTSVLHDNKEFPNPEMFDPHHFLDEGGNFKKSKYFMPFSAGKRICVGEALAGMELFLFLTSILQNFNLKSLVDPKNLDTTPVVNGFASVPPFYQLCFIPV
Data set [4] deals with CYP2C19 (Homo sapiens (Human), UniProt P33261). The description is as above. In kind it is in vitro ADME. The procedure: as §1
Sequence of CYP2C19 (P33261 whole entry): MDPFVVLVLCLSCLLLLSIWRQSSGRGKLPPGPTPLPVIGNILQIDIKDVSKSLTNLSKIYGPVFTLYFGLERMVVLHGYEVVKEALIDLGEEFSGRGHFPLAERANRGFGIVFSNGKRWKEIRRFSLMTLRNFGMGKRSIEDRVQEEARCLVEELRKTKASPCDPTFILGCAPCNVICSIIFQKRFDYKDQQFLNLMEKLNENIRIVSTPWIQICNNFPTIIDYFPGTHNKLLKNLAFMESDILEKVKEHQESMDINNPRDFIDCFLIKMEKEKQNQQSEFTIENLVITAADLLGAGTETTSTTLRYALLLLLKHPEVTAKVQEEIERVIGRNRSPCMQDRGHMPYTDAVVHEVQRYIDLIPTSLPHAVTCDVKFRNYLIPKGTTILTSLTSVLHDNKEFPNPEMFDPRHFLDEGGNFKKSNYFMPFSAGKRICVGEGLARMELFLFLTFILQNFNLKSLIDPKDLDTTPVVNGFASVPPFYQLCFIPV

Values after ≈ are worked out from the molar mass of the structure shown.

Sequence of CYP3A4 (P08684 whole entry): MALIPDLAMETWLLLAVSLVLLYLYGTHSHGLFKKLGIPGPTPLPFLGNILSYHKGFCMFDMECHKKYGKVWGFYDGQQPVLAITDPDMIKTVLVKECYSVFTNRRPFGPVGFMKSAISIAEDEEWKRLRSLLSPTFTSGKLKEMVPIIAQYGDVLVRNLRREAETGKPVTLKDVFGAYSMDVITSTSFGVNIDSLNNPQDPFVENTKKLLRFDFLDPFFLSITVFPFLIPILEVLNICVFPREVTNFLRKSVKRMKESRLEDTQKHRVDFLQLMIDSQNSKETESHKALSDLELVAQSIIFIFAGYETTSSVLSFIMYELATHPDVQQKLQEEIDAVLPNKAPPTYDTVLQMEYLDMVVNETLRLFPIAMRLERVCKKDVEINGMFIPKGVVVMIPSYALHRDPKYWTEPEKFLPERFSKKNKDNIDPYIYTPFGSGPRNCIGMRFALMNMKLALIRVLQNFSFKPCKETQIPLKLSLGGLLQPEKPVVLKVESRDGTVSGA

Compound `OC(Cn1cncn1)(c1ccc(F)cc1F)C(F)(F)c1ccc(-c2ccc(F)cc2)cn1` (stereo not drawn) [Example 16, 2-(2,4-Difluorophenyl)-1,1-difluoro-1-(5-(4-fluorophenyl)pyridin-2-yl)-3-(1H-1,2,4-triazol-1-yl)propan-2-ol] had an MIC in data set [1] of 2 ng/mL (≈ 4.48 nM).

Consider `OC(Cn1cncn1)(c1ccc(F)cc1F)C(F)(F)c1ccc(-c2ccc(OCC(F)(F)F)cc2)cn1` (stereo not drawn) [Example 17, 2-(2,4-difluorophenyl)-1,1-difluoro-3-(1H-1,2,4-triazol-1-yl)-1-(5-(4-(2,2,2-trifluoroethoxy)phenyl)pyridin-2-yl)propan-2-ol], for which, in data set [1], the MIC was at most 1 ng/mL.

As for `OC(Cn1cncn1)(c1ccc(F)cc1F)C(F)(F)c1ccc(-c2ccc(OC(F)(F)F)cc2)cn1` [Example 18, 2-(2,4-Difluorophenyl)-1,1-difluoro-3-(1H-1,2,4-triazol-1-yl)-L-(5-(4-(trifluoromethoxy)phenyl)pyridin-2-yl)propan-2-ol], the MIC in data set [1] is at most 1 ng/mL. Moreover, the IC50 was 3.8 µM in data set [2], 3.1 µM in data set [3] and 11 µM in data set [4].

Source of the values: patent US8754227B2, “Metalloenzyme inhibitor compounds” (Viamet Pharmaceuticals, Inc., priority 2010, dated 2014).
